Where two headings read alike, the source gives them in different places.
Assays:
NR1/NR2B [1] = molecular target: NR1/NR2B (Homo sapiens (Human), UniProt Q13224); test: Cell assay: FDSS Ca2+ influx inhibition in HEK293 cells expressing NR1/NR2B;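 further: Fluo-8 Ca2+ signal read on Hamamatsu FDSS 6000 after glutamate, glycine and Ca2+ challenge following 10 min compound preincubation, end/baseline fluorescence ratio compared with MK801 control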
NR1/NR2B [2] = molecular target: NR1/NR2B (Homo sapiens (Human), UniProt Q05586+Q13224); test: as above; conditions: Ca2+ influx
[3] = read-out: Binned Activity, HEK293 cells expressing NR1/NR2B, Ca2+ influx, binned NR2B NAM IC50
[4] = read-out: NR2B NAM IC50, HEK293 cells expressing NR1/NR2B, Ca2+ influx
[5] = Binned Activity, HEK293 cells expressing NR1/NR2B, binned NR2B NAM IC50
[6] = NR2B NAM IC50, HEK293 cells expressing NR1/NR2B

NR1/NR2B (Homo sapiens (Human), UniProt Q05586+Q13224), sequence (Q13224 27-1484, other chains not shown): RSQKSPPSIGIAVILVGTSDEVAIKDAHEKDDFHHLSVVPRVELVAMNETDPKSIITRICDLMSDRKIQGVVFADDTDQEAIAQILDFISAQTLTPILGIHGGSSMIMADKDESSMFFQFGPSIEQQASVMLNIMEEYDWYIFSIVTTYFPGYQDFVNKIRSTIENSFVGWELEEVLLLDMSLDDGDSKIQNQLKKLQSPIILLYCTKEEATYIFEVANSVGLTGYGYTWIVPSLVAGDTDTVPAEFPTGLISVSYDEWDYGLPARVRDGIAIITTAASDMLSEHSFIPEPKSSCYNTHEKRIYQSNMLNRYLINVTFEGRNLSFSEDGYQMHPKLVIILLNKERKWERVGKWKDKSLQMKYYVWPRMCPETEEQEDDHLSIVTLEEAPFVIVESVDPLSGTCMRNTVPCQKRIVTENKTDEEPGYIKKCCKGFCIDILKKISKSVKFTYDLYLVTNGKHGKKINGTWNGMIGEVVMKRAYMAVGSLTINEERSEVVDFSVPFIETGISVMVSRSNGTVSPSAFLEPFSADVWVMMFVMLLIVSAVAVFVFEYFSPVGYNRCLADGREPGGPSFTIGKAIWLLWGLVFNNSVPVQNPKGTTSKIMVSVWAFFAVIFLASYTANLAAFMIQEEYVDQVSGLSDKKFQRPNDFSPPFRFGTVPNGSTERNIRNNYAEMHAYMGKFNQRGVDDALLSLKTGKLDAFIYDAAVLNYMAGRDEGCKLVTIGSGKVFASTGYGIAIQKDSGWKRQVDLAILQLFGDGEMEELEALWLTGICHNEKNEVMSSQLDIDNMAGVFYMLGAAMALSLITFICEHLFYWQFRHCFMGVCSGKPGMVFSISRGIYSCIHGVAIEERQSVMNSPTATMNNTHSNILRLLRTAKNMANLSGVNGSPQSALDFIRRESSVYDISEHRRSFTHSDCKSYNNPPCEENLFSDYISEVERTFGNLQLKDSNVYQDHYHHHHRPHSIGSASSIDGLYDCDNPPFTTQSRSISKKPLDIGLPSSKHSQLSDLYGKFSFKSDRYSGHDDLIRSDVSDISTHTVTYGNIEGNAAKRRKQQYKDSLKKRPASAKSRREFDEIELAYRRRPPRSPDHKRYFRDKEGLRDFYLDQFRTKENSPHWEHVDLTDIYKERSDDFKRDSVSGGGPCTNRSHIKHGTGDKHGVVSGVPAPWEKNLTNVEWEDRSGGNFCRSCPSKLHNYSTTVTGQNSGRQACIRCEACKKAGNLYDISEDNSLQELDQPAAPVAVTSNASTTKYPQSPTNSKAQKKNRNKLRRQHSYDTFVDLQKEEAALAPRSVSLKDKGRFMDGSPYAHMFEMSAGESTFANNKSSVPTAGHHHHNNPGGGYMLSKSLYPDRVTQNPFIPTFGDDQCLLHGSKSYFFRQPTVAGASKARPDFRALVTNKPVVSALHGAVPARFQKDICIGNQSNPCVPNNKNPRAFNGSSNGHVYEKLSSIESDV
NR1/NR2B (Homo sapiens (Human), UniProt Q13224), sequence (Q13224 27-1484, other chains not shown): as above

Compound	IC50 (NR1/NR2B [1]; [4])	IC50 (NR1/NR2B [2]; [5])	IC50 (NR1/NR2B [2]; [6])	also measured
C[C@@H](NC(=O)N1C[C@H]2C[C@@H](c3ccccc3)C[C@H]2C1)c1ccc(Cl)cc1 [Example 113, N-[(1R)-1-(4-chlorophenyl)ethyl]-5-phenyl-octahydrocyclopenta[c] pyrrole-2-carboxamide]	10000 nM	> 10000 nM		
Cc1cc(F)ccc1C[C@]1(O)C[C@H]2CN(CC(=O)c3ccc(O)cn3)C[C@H]2C1 [Example 242, 2-((3aR,5r,6aS)-5-(4-fluoro-2-methylbenzyl)-5-hydroxyhexahydrocyclo-penta[c]pyrrol-2(1H)-yl)-1-(5-hydroxypyridin-2-yl)ethanone]	2710 nM	1000 to 10000 nM		
Cc1cccc(-c2ccc(C(=O)CN3C[C@@H]4C[C@@](O)(Cc5ccccc5)C[C@@H]4C3)cc2)c1 [Example 264, 2-((3aR,5r,6aS)-5-benzyl-5-hydroxyhexahydrocyclo-penta[c]pyrrol-2(1H)-yl)-1-(3′-methyl-[1,1′-biphenyl]-4-yl)ethanone]	10000 nM	> 10000 nM		
O=C(CN1C[C@@H]2C[C@@](O)(Cc3ccc(C(F)(F)F)cc3)C[C@@H]2C1)c1ccc(O)cc1 [Example 219, 2-[(3aR,5R,6aS)-5-hydroxy-5-{[4-(trifluoromethyl)phenyl]methyl}-octahydrocyclopenta[c]pyrrol-2-yl]-1-(4-hydroxyphenyl)ethan-1-one]	125 nM	100 to 1000 nM		
Oc1ccc([C@H](O)CN2C[C@@H]3C[C@@](O)(Cc4ccccc4)C[C@@H]3C2)cc1 [Example 143, (3aR,5S,6aS)-5-benzyl-2-((S)-2-hydroxy-2-(4-hydroxyphenyl)ethyl)octa-hydrocyclopenta[c]pyrrol-5-ol]				IC50 (NR1/NR2B [1]; [3]): < 100 nM
O=C(CN1CC2CC(Cc3ccccc3)CC2C1)c1ccc(O)cn1 (centres unmarked) [Example 297, 2-{5-benzyl-octahydrocyclopenta[c]pyrrol-2-yl}-1-(5-hydroxypyridin-2-yl)ethan-1-one]	792 nM			IC50 (NR1/NR2B [1]; [3]): 100 to 1000 nM
O=C(CN1CC2CC(CCc3ccccc3)CC2C1)c1ccc(O)cc1 (centres unmarked) [Example 323, 1-(4-hydroxyphenyl)-2-(5-phenethyl-hexahydrocyclo-penta[c]pyrrol-2(1H)-yl)ethanone]	426 nM			IC50 (NR1/NR2B [1]; [3]): 100 to 1000 nM
COc1ccc(C(O)CN2C[C@@H]3C[C@@](O)(c4ccccc4)C[C@@H]3C2)cc1 (mixture of isomers) [Example 66, rac-2-[2-hydroxy-2-(4-methoxyphenyl)ethyl]-5-phenyl-octahydrocyclopenta[c] pyrrol-5-ol]		> 10000 nM	≥ 10000 nM	
CC(=O)Nc1ccc(C(O)CN2C[C@@H]3C[C@@](O)(Cc4ccccc4)C[C@@H]3C2)cc1 (mixture of isomers) [Example 149, rac-N-(4-(2-((3aR,5r,6aS)-5-benzyl-5-hydroxyhexahydrocyclo-penta[c]pyrrol-2(1H)-yl)-1-hydroxyethyl)phenyl)acet-amide]			2310 nM	
O=C(CN1CC2CC(Cc3ccccc3)CC2C1)c1ccc(O)c(F)c1 (centres unmarked) [Example 299, 2-{5-benzyl-octahydrocyclopenta[c]pyrrol-2-yl}-1-(3-fluoro-4-hydroxyphenyl) ethan-1-one]				IC50 (NR1/NR2B [1]; read-out: Binned Activity): < 100 nM; IC50 (NR1/NR2B [1]; read-out: NR2B NAM IC50): 78.1 nM
O=C(CN1CC2CC(O)(c3ccccc3)CC2C1)c1ccccc1 (centres unmarked) [Example 57, 2-(5-hydroxy-5-phenylhexahydrocyclo-penta[c]pyrrol-2(1H)-yl)-1-phenylethanone]	10000 nM			IC50 (NR1/NR2B [1]; [3]): > 10000 nM
OC(CN1C[C@@H]2C[C@@](O)(c3ccc(F)cc3)C[C@@H]2C1)c1cccc(C(F)(F)F)c1 (mixture of isomers) [Example 75, rac-5-(4-fluorophenyl)-2-{2-hydroxy-2-[3-(trifluoromethyl)phenyl]ethyl}-octahydrocyclopenta[c] pyrrol-5-ol]		> 10000 nM	≥ 10000 nM	

Second part, led by results:

IC50 (NR1/NR2B [1]; [4])	IC50 (NR1/NR2B [2]; [5])	IC50 (NR1/NR2B [2]; [6])	Compound	also measured
10000 nM			OC(CN1C[C@@H]2CC(O)(Cc3ccccc3)C[C@@H]2C1)c1ccc(F)cc1 (mixture of isomers) [Example 289, rac-(3aR,5r,6aS)-5-benzyl-2-(2-(4-fluorophenyl)-2-hydroxyethyl)octahydro-cyclopenta[c]pyrrol-5-ol]	IC50 (NR1/NR2B [1]; [3]): > 10000 nM
803 nM	100 to 1000 nM		O=C(CN1C[C@@H]2C[C@@](O)(Cc3ccc(C(F)(F)F)cc3)C[C@@H]2C1)c1ccc(O)cn1 [Example 216, 2-[(3aR,5R,6aS)-5-hydroxy-5-{[4-(trifluoromethyl)phenyl]methyl}-octahydrocyclopenta[c]pyrrol-2-yl]-1-(5-hydroxypyridin-2-yl)ethan-1-one]	
10000 nM	> 10000 nM		O=C(CN1C[C@@H]2C[C@@](O)(Cc3ccccc3)C[C@@H]2C1)c1ccc(-c2ccccc2)cc1 [Example 258, 1-([1,1′-biphenyl]-4-yl)-2-((3aR,5r,6aS)-5-benzyl-5-hydroxyhexahydrocyclo-penta[c]pyrrol-2(1H)-yl)ethanone]	
		2630 nM	Oc1ccc(C(O)CN2C[C@@H]3C[C@@](O)(CC4CCCCC4)C[C@@H]3C2)nc1 (mixture of isomers) [Example 214, rac-6-{2-[(3aR,5R,6aS)-5-(cyclohexylmethyl)-5-hydroxy-octahydrocyclopenta[c]pyrrol-2-yl]-1-hydroxyethyl}pyridin-3-ol]	
	> 10000 nM	≥ 10000 nM	CC(C)(O)c1ccc(C(O)CN2C[C@@H]3C[C@@](O)(c4ccccc4)C[C@@H]3C2)cc1 (mixture of isomers) [Example 69, rac-2-(2-hydroxy-2-(4-(2-hydroxypropan-2-yl)phenyl)ethyl)-5-phenyloctahydrocyclo-penta[c]pyrrol-5-ol]	
	< 100 nM	19.3 nM	Oc1ccc(C(O)CN2C[C@@H]3C[C@@](O)(Cc4cccs4)C[C@@H]3C2)cc1F (mixture of isomers) [Example 222, rac-2-(2-(3-fluoro-4-hydroxyphenyl)-2-hydroxyethyl)-5-(thiophen-2-ylmethyl)octahydrocyclo-penta[c]pyrrol-5-ol]	
		12.2 nM	Oc1ccc(C(O)CN2C[C@H]3C[C@@H](Cc4ccccc4)C[C@H]3C2)cc1F (mixture of isomers) [Example 301, rac-4-{2-[(3aR,5S,6aS)-5-benzyl-octahydrocyclopenta[c]pyrrol-2-yl]-1-hydroxyethyl}-2-fluorophenol]	
		31.5 nM	Oc1ccc(C(O)CN2C[C@@H]3C[C@@](O)(Cc4ccc(F)c(F)c4)C[C@@H]3C2)cc1 (mixture of isomers) [Example 253, rac-(3aR,5r,6aS)-5-(3,4-difluorobenzyl)-2-(2-hydroxy-2-(4-hydroxyphenyl)ethyl) octahydrocyclopenta[c] pyrrol-5-ol]	
		566 nM	Cc1cc(C)cc(C[C@]2(O)C[C@H]3CN(CC(O)c4ccc(O)cc4)C[C@H]3C2)c1 (mixture of isomers) [Example 213, rac-(3aR,5R,6aS)-5-[(3,5-dimethylphenyl)methyl]-2-[2-hydroxy-2-(4-hydroxyphenyl)ethyl]-octahydrocyclopenta[c] pyrrol-5-ol]	
		27.1 nM	Oc1ccc(C(O)CN2C[C@@H]3C[C@@](O)(Cc4ccc(F)cc4)C[C@@H]3C2)cc1 (mixture of isomers) [Example 135, rac-(3aR,5r,6aS)-5-(4-fluorobenzyl)-2-(2-hydroxy-2-(4-hy-droxyphenyl)ethyl)octa-hydrocyclopenta[c]pyrrol-5-ol]	
	< 100 nM	23.8 nM	Oc1ccc(C(O)CN2C[C@@H]3C[C@@](O)(Cc4ccc(F)cc4F)C[C@@H]3C2)cc1 (mixture of isomers) [Example 245, rac-5-(2,4-difluorobenzyl)-2-(2-hydroxy-2-(4-hydroxyphenyl)ethyl) octahydrocyclopenta[c] pyrrol-5-ol]	
	< 100 nM	36.4 nM	Oc1ccc(C(O)CN2C[C@@H]3C[C@](F)(Cc4ccccc4)C[C@@H]3C2)cc1F (mixture of isomers) [Example 316, rac-4-(2-((3aR,5s,6aS)-5-benzyl-5-fluoro-hexahydrocyclopen-ta[c]pyrrol-2(1H)-yl)-1-hydroxyethyl)-2-fluorophenol]	
	> 10000 nM	≥ 10000 nM	CC(C)(C)c1ccc([C@]2(O)C[C@H]3CN(CC(O)c4cccc(F)c4)C[C@H]3C2)cc1 (mixture of isomers) [Example 71, rac-5-(4-tert-butylphenyl)-2-[2-(3-fluorophenyl)-2-hydroxyethyl]-octahydrocyclopenta[c] pyrrol-5-ol]	
	> 10000 nM	≥ 10000 nM	CC(C(=O)c1ccc(O)cc1)N1C[C@@H]2C[C@@](O)(c3ccc(F)cc3)C[C@@H]2C1 (mixture of isomers) [Example 92, rac-2-[5-(4-fluorophenyl)-5-hydroxy-octahydrocyclopenta[c]pyrrol-2-yl]-1-(4-hydroxyphenyl)propan-1-one]	
	> 10000 nM	≥ 10000 nM	Oc1ccc(C(O)CN2C[C@@H]3C[C@@](O)(CC4CC4)C[C@@H]3C2)cc1 (mixture of isomers) [Example 211, rac-(3aR,5r,6aS)-5-(cyclopropylmethyl)-2-(2-hydroxy-2-(4-hydroxyphenyl)ethyl) octahydrocyclopenta [c]pyrrol-5-ol]	
		25.7 nM	Oc1ccc(C(O)CN2C[C@@H]3C[C@@](O)(Cc4cccs4)C[C@@H]3C2)nc1 (mixture of isomers) [Example 215, rac-2-(2-hydroxy-2-(5-hydroxypyridin-2-yl)ethyl)-5-(thiophen-2-ylmethyl)octahydrocyclo-penta[c]pyrrol-5-ol]	
		69.6 nM	Oc1ccc(C(O)CN2C[C@@H]3C[C@@](O)(Cc4c(F)cccc4F)C[C@@H]3C2)nc1 (mixture of isomers) [Example 240, rac-6-{2-[(3aR,5R,6aS)-5-[(2,6-difluorophenyl)methyl]-5-hydroxy-octahydrocyclopenta[c]pyrrol-2-yl]-1-hydroxyethyl}pyridin-3-ol]	
		31.6 nM	CO[C@@]1(Cc2ccccc2)C[C@H]2CN(CC(O)c3ccc(O)cn3)C[C@H]2C1 (mixture of isomers) [Example 177, rac-6-(2-((3aR,5r,6aS)-5-benzyl-5-methoxyhexahydrocyclo-penta[c]pyrrol-2(1H)-yl)-1-hydroxyethyl)pyridin-3-ol]	

Reference: US10052306B2 (LUC THERAPEUTICS, INC., priority 2013, dated 2018)
